Measurements reported in US12258424B2, “Polypeptides and compositions comprising the same” (priority 2020, dated 2025).
Positions of bridges follow the written chain, without caps; N, C: chain ends. Residues, ends and D or L forms follow the SMILES beside them.

Tests used:
IL-6 = details: cancer patients, Herbst et al. 2014; cited from earlier work
[1] = Proteolytic stability in 50% human serum (LC-MS); format: in vitro ADME
Description: Half-life in 50% human serum. Proteolytic stability of the peptides was investigated using LC-MS. Solutions of the anti-PD-L1 peptides were incubated with 50% human serum at […], aliquots were taken at specific time points for processing and subsequent LC-MS analysis.

[2] = Cell viability of DU145 cells (CellTiter-Glo); format: cell-based; details: human, read-out: % cell viability after incubation with 50 μM peptide
Description: % cell viability after incubation with 50 μM peptide. White 96-well plates with clear bottom (Corning, RFE 3610) were seeded with DU145 cells at a density of 1×10^4 cells/well and incubated in a humidified atmosphere at 37° C. with a supply of 5% CO2. After 12 h, various peptide concentrations were added to the cells and incubated for 48 h. CellTiter-Glo kit (Promega, WI) was employed in the cell viability analysis by following the manufacturer's instructions.

PD1/PD-L1 = PD1/PD-L1 (Homo sapiens, UniProt Q9NZQ7); experiment: IC50 and blocking efficiency against PD1/PD-L1 (Table 5); format: binding
Sequence of PD1/PD-L1 (Q9NZQ7 19-238 limits assumed): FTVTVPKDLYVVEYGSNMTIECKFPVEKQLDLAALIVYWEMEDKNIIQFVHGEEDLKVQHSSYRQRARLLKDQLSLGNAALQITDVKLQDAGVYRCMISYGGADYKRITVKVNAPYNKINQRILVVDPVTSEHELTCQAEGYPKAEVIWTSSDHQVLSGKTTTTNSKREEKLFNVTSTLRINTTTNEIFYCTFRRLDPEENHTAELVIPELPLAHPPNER
Description: (§1) Blocking efficiency at 10 μM/IC50 against human and mouse PD1/PD-L1 (ELISA). […] 100 ng of recombinant human PD-L1 protein was coated in 96-well plates at 4° C. for 16 h with shaking over an orbital shaker. Unbound protein was removed by washing twice with PBS (pH 7.2-7.4), 2% BSA was added for 1.5 h at 37° C. to block the plate. Specific concentrations of the peptides were dispensed into the appropriate wells and incubated for 2 h at 37° C. […] This was followed by the addition of streptavidin-HRP and chromogenic substrate (R & D systems). The color reaction was terminated with 2N H2SO4, absorbance was recorded at OD450 and referenced to OD540.

hPD-L1 [3] = molecular target: T1, hPD-L1 (Homo sapiens, UniProt Q9NZQ7); experiment: PD-1/PD-L1 inhibitor screening ELISA, human proteins; format: binding; parameters: purchased Acro Biosystems EP-101
T1 sequence (Q9NZQ7 19-238 limits assumed): as above
Description: as §1

hPD-L1 [4] = molecular target: T1, hPD-L1; experiment: Competitive SPR blocking of PD-L1 binding to immobilized PD-1; parameters: purchased Acro Biosystems EP-101
Description: % Blocking efficiency at 10 μM (Competitive SPR)/IC50 (competitive SPR) hPD-L1. BI-4500A SPR and a CM-5 sensor chip pre-functionalized with streptavidin (Biosensing Instrument Inc., Tempe, Ariz.) were employed for the SPR analysis. […] Different concentrations of each peptide were incubated with human PD-L1 (AcroBiosystems, cat #EP-101) prior to injection. Human PD-L1 alone was also injected to serve as a control. […] Data was analyzed with SPR Data Analysis Version 3.8.4 (Biosensing Instrument Inc., Tempe, AZ).

mPD-L1 = mPD-L1 (Mus musculus, UniProt Q9EP73); experiment: PD-1/PD-L1 blocking ELISA, mouse proteins; format: binding; parameters: purchased Acro Biosystems PD1-M5220 (PD-L1)
Sequence of mPD-L1 (Q9EP73 19-238 limits assumed): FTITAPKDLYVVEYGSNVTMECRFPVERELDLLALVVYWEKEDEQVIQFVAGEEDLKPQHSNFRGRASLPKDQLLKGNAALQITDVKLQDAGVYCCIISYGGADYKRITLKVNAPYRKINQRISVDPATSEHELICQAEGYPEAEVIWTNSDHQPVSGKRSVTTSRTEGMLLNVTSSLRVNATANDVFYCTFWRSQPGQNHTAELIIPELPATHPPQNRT
Description: as §1

Compound | Expression of IL-6 in the blood (IL-6) | half-life [1] [min] | viability at 48 h, 50 µM [2] [%] | % Blocking efficiency at 10 μM (PD1/PD-L1) [%] | % Blocking efficiency at 10 μM (ELISA) hPD-L1 (hPD-L1 [3]) [%] | % Blocking efficiency at 10 μM (Competitive SPR) hPD-L1 (hPD-L1 [4]) [%] | % Blocking efficiency at 10 μM (ELISA) mPD-L1 (mPD-L1) [%]
MPDL3280A: anti-PD-L1 antibody MPDL3280A (Herbst et al. 2014) | reduced | – | – | – | – | – | –
CC(C)C[C@H](NC(=O)[C@H](CC(N)=O)NC(=O)[C@H](Cc1c[nH]c2ccccc12)NC(=O)[C@@H]1CSSC[C@H](N)C(=O)N[C@@H](Cc2c[nH]cn2)C(=O)N[C@@H](CCCNC(=N)N)C(=O)N[C@@H](CO)C(=O)N[C@@H](Cc2ccc(O)cc2)C(=O)N[C@@H](Cc2ccc(O)cc2)C(=O)N1)C(=O)N[C@@H](CC(N)=O)C(=O)N[C@H](C(=O)O)[C@@H](C)O [CLP2C21] (H-CHRSYYCWNLNT-OH; disulfide 1-7; N-terminus and C-terminus assumed) | – | 70.8 | ~100 | 78 | 85.9 | 99.4 | 82.6
CC(C)C[C@@H]1NC(=O)[C@H](CC(N)=O)NC(=O)[C@H](Cc2c[nH]c3ccccc23)NC(=O)[C@H]([C@@H](C)O)NC(=O)[C@H](Cc2ccc(O)cc2)NC(=O)[C@H](Cc2ccc(O)cc2)NC(=O)[C@H](CO)NC(=O)[C@H](CCCNC(=N)N)NC(=O)[C@H](Cc2c[nH]cn2)NC(=O)[C@@H](N)CSSC[C@@H](C(=O)O)NC(=O)[C@H](CC(N)=O)NC1=O [CLP2C14] (H-CHRSYYTWNLNC-OH; disulfide 1-12; N-terminus and C-terminus assumed) | – | 38.1 | ~100 | 75 | 75.0 | 86.8 | 89.3
